In paper PMC4261083, “An atypical residue in the pore of Varroa destructor GABA-activated RDL receptors affects picrotoxin block and thymol modulation” (Insect Biochemistry and Molecular Biology, 2014):
Numbering of substitutions follows the chain as printed.

How the values were obtained:
Assay in all cases: Picrotoxin inhibition of GABA responses, two electrode voltage clamp in Xenopus oocytes
Format in all cases: cell-based
[1] = target: T1, 4M2 mutant Drosophila RDL receptor (N-7′H, T6′M, A20′S and A21′Q) (Drosophila melanogaster, UniProt P25123, A319S/A320Q/N292H/T305M); conditions: 4M2 RDL
T1 construct: expressed in transfected cells; host or cells: Xenopus laevis oocytes injected with cRNA
T1 sequence (P25123 45-606 N292H/T305M/A319S/A320Q): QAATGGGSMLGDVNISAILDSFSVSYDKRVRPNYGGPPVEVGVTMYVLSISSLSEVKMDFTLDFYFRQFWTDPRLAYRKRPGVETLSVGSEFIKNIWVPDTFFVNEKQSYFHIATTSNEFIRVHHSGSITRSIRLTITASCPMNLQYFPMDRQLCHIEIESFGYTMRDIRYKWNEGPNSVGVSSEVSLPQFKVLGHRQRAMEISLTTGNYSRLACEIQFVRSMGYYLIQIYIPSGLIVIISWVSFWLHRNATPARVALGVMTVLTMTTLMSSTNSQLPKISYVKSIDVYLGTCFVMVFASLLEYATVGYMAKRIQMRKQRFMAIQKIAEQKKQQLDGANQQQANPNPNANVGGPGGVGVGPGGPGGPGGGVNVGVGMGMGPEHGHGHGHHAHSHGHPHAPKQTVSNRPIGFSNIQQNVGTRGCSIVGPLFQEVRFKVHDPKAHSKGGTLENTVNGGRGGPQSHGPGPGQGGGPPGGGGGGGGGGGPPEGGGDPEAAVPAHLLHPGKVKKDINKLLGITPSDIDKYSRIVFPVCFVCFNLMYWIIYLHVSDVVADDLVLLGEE
Procedure: (§1) X. laevis oocyte-positive females were purchased from NASCO (Fort Atkinson, Wisconsin, USA) and maintained according to standard methods. Harvested stage V-VI Xenopus oocytes were washed in four changes of ND96 (96 mM NaCl, 2 mM KCl, 1 mM MgCl2, 1 mM CaCl2, 5 mM HEPES, pH 7.5), de-folliculated in 1.5 mg ml^−1 collagenase Type 1A for approximately 2 h, washed again in four changes of ND96 and stored in ND96 containing 2.5 mM sodium pyruvate, 0.7 mM theophylline and […].
(§2) Drosophila RDL subunit cDNA (kindly gifted from N.Millar) was subcloned into pGEMHE for oocyte expression as previously described ([McGonigle and Lummis, 2010], [Millar et al., 1994]). Site directed mutagenesis was performed with the QuikChange mutagenesis kit (Agilent, La Jolla, CA). cRNA was transcribed in vitro from linearised pGEMHE cDNA template using the mMessage mMachine T7 Transcription kit (Ambion, Austin, Texas, USA). Stage V and VI oocytes were injected with 5 ng cRNA, incubated at 18 °C, and currents recorded 18–24 h post-injection.
(§3) Xenopus oocytes were clamped at −60 mV using an OC-725 amplifier (Warner Instruments, Connecticut, USA), Digidata 1322A and the Strathclyde Electrophysiology Software Package (Department of Physiology and Pharmacology, University of Strathclyde, UK), or using the Roboocyte (MultiChannel Systems). Currents were recorded at 5 kHz and filtered at a frequency of 1 kHz. Micro-electrodes were fabricated from borosilicate glass (GC120TF-10, Harvard Apparatus, Edenbridge, Kent, UK) using a one stage horizontal pull (P-87, Sutter Instrument Company, California, USA) and filled with 3 M KCl. Pipette resistances ranged from 1.0 to 2.0 MΩ. Oocytes were perfused with ND96 at a constant rate of 12 ml min^−1. Drug application was via a simple gravity fed system calibrated to run at the same rate.
(§4) Analysis and curve fitting was performed using Prism v5 (GraphPad Software, San Diego, California, USA). Concentration-response data for each oocyte was normalised to the maximum current for that oocyte. The mean and S.E.M. for a series of oocytes were fitted to the four parameter logistic equation in Prism.

[2] = target: T2, N-7′H mutant Drosophila RDL receptor (Drosophila melanogaster, UniProt P25123, N292H); conditions: N-7′H RDL
T2 construct: expressed in transfected cells; host or cells: Xenopus laevis oocytes injected with cRNA
T2 sequence (P25123 45-606 N292H): T1 sequence (P25123 45-606 N292H/T305M/A319S/A320Q) with M261T, S275A, Q276A
Procedure: as §1, §2, §3, §4

[3] = target: T3, wild type Drosophila RDL receptor (Drosophila melanogaster, UniProt P25123)
T3 construct: expressed in transfected cells; host or cells: Xenopus laevis oocytes injected with cRNA
T3 sequence (P25123 45-606): T1 sequence (P25123 45-606 N292H/T305M/A319S/A320Q) with H248N, M261T, S275A, Q276A
Procedure: as §1, §2, §3, §4

For picrotoxin, the “Sensitivity to PTX” value ([1]; PTX up to 100 μM) was “insensitive”, the IC50 ([1]; inhibition of GABA responses, read-out: Picrotoxin pIC50 (converted)) was over 100000 nM and the IC50 [2] was 560 nM. For the same substance, the “Picrotoxin pIC50” value [2] was 6.25 ± 0.64, the IC50 [3] was 180 nM and the “Picrotoxin pIC50” value [3] was 6.75 ± 0.22.
